Data as given in patent publication US10376520B2, “Methods for the treatment of cardiovascular disorders” (Galapagos NV, priority 2015, dated 2019).

Tested on: RA patients
Experiment: LDL determination, Study 2 (RA patients, monotherapy)
Type: in vivo, human
Conditions: for [LDL] Mean CFB / [LDL] Median CFB: Study 2 12 weeks results
Description: Randomized, double-blind, placebo-controlled, multicenter, phase IIb dose finding study of Compound 1 (dosed as a [Compound 1:HCl:3H2O]) administered for 24 weeks as monotherapy to subjects with moderately to severely active rheumatoid arthritis who have an inadequate response to methotrexate alone
Double-blind, placebo-controlled, monotherapy study in subjects with moderately to severely active RA who have an inadequate response to methotrexate (MTX) (oral or parenteral).
280 subjects randomized to one of 3 doses of Compound 1 (dosed as a [Compound 1:HCl:3H2O]) or to placebo, given once daily (q.d.).
Twelve weeks of treatment with Compound 1 (dosed as a [Compound 1:HCl:3H2O]) at 50 mg, 100 mg, or 200 mg q.d.; or placebo. At Week 12, all subjects on placebo and the subjects on the 50 mg dose who have not achieved 20% improvement in swollen joint count (SJC66) and tender joint count (TJC68) will be assigned to 100 mg q.d. in a blinded fashion and will continue treatment until Week 24. Subjects in the other groups will maintain their randomized treatment until Week 24.
The determination of [LDL]-cholesterol is made using an automated method taking advantage of the selective micellary solubilization of [LDL]-cholesterol by a nonionic detergent and the interaction of a sugar compound and lipoproteins (VLDL and chylomicrons).
When a detergent is included in the enzymatic method for cholesterol determination (cholesterol esterase, cholesterol oxidase coupling reaction), the relative reactivities of cholesterol in the lipoprotein fractions increase in this order: [HDL]<chylomicrons <VLDL <[LDL]. In the presence of Mg^2+, a sugar compound markedly reduces the enzymatic reaction of the cholesterol measurement in VLDL and chylomicrons. The combination of a sugar compound with detergent enables the selective determination of [LDL]-cholesterol in serum. (Friedewald et al., 1972; Rifai et al., 1992)
Homogeneous enzymatic colorimetric assay.
In the presence of peroxidase, the hydrogen peroxide generated reacts with 4-aminoantipyrine and Sodium N-(2-hydroxy-3-sulfopropyl)-3,5-dimethoxyaniline (HSDA) to form a purple-blue dye.
The color intensity of this dye is directly proportional to the cholesterol concentration and is measured photometrically.
Human serum and plasma samples [LDL] determination was done on a Roche/Hitachi Cobas c 701/702 system which automatically calculate the analyte concentration of each sample. Samples containing precipitates are centrifuged before performing the assay.

[1] = 50 mg q.d. non responders switching to 100 mg q.d. at week 12, week 1
[2] = 50 mg q.d. non responders switching to 100 mg q.d. at week 12, week 2
[3] = 50 mg q.d. non responders switching to 100 mg q.d. at week 12, week 4
[4] = 50 mg q.d. non responders switching to 100 mg q.d. at week 12, week 8
[5] = 50 mg q.d. non responders switching to 100 mg q.d. at week 12, week 12

## O=C(Nc1nc2cccc(-c3ccc(CN4CCS(=O)(=O)CC4)cc3)n2n1)C1CC1 [Compound 1, cyclopropanecarboxylic acid {5-[4-(1,1-dioxo-thiomorpholin-4-ylmethyl)-phenyl]-[1,2,4]triazolo[1,5-a]pyridin-2yl}-amide]
[1]
  [LDL] Mean percentage CFB - 24 weeks results: −0.30%
  [LDL] Median percentage CFB - 24 weeks results: 2.72%
[2]
  [LDL] Mean percentage CFB - 24 weeks results: 1.96%
  [LDL] Median percentage CFB - 24 weeks results: −0.66%
[3]
  [LDL] Mean percentage CFB - 24 weeks results: 6.21%
  [LDL] Median percentage CFB - 24 weeks results: 1.36%
[4]
  [LDL] Mean percentage CFB - 24 weeks results: 4.76%
  [LDL] Median percentage CFB - 24 weeks results: 2.69%
[5]
  [LDL] Mean percentage CFB - 24 weeks results: 6.13%
  [LDL] Median percentage CFB - 24 weeks results: 3.06%
50 mg q.d. non responders switching to 100 mg q.d. at week 12, week 16
  [LDL] Median percentage CFB - 24 weeks results: 7.11%
50 mg q.d. non responders switching to 100 mg q.d. at week 12, week 20
  [LDL] Median percentage CFB - 24 weeks results: −0.80%
50 mg q.d. non responders switching to 100 mg q.d. at week 12, week 24
  [LDL] Median percentage CFB - 24 weeks results: 5.60%
50 mg q.d. responders, week 1
  [LDL] Mean percentage CFB - 24 weeks results: −0.43%
  [LDL] Median percentage CFB - 24 weeks results: −0.29%
50 mg q.d. responders, week 2
  [LDL] Mean percentage CFB - 24 weeks results: −2.56%
  [LDL] Median percentage CFB - 24 weeks results: −2.27%
50 mg q.d. responders, week 4
  [LDL] Mean percentage CFB - 24 weeks results: 2.09%
  [LDL] Median percentage CFB - 24 weeks results: −1.14%
50 mg q.d. responders, week 8
  [LDL] Mean percentage CFB - 24 weeks results: 6.10%
  [LDL] Median percentage CFB - 24 weeks results: 5.33%
50 mg q.d. responders, week 12
  [LDL] Mean percentage CFB - 24 weeks results: 3.64%
  [LDL] Median percentage CFB - 24 weeks results: 0.69%
50 mg q.d. responders, week 16
  [LDL] Mean percentage CFB - 24 weeks results: 7.12%
  [LDL] Median percentage CFB - 24 weeks results: 7.71%
50 mg q.d. responders, week 20
  [LDL] Mean percentage CFB - 24 weeks results: 1.20%
  [LDL] Median percentage CFB - 24 weeks results: 3.91%
50 mg q.d. responders, week 24
  [LDL] Mean percentage CFB - 24 weeks results: 1.97%
  [LDL] Median percentage CFB - 24 weeks results: −0.19%
50 mg q.d., week 1
  [LDL] Mean percentage CFB - 12 weeks results: −0.40%
  [LDL] Median percentage CFB - 12 weeks results: 0.18%
  [LDL] Mean CFB: 0.011 mmol/L
  [LDL] Median CFB: 0.005 mmol/L
50 mg q.d., week 2
  [LDL] Mean percentage CFB - 12 weeks results: −1.59%
  [LDL] Median percentage CFB - 12 weeks results: −1.23%
  [LDL] Mean CFB: -0.057 mmol/L
  [LDL] Median CFB: -0.040 mmol/L
50 mg q.d., week 4
  [LDL] Mean percentage CFB - 12 weeks results: 2.97%
  [LDL] Median percentage CFB - 12 weeks results: 0.76%
  [LDL] Mean CFB: 0.047 mmol/L
  [LDL] Median CFB: 0.025 mmol/L
50 mg q.d., week 8
  [LDL] Mean percentage CFB - 12 weeks results: 5.80%
  [LDL] Median percentage CFB - 12 weeks results: 4.49%
  [LDL] Mean CFB: 0.142 mmol/L
  [LDL] Median CFB: 0.130 mmol/L
50 mg q.d., week 12
  [LDL] Mean percentage CFB - 12 weeks results: 4.19%
  [LDL] Median percentage CFB - 12 weeks results: 1.14%
100 mg q.d., week 1
  [LDL] Mean percentage CFB - 12 weeks results: 6.36%
  [LDL] Mean percentage CFB - 24 weeks results: 6.36%
  [LDL] Median percentage CFB - 12 weeks results: 1.97%
  [LDL] Median percentage CFB - 24 weeks results: 1.97%
100 mg q.d., week 2
  [LDL] Mean percentage CFB - 12 weeks results: 6.15%
  [LDL] Mean percentage CFB - 24 weeks results: 6.15%
  [LDL] Median percentage CFB - 24 weeks results: −1.82%
100 mg q.d., week 4
  [LDL] Mean percentage CFB - 12 weeks results: 10.29%
  [LDL] Mean percentage CFB - 24 weeks results: 10.29%
  [LDL] Median percentage CFB - 12 weeks results: 5.08%
  [LDL] Median percentage CFB - 24 weeks results: 5.08%
100 mg q.d., week 8
  [LDL] Mean percentage CFB - 12 weeks results: 7.39%
  [LDL] Mean percentage CFB - 24 weeks results: 7.39%
  [LDL] Median percentage CFB - 12 weeks results: 5.34%
  [LDL] Median percentage CFB - 24 weeks results: 5.34%
100 mg q.d., week 12
  [LDL] Mean percentage CFB - 12 weeks results: 14.31%
  [LDL] Mean percentage CFB - 24 weeks results: 14.31%
  [LDL] Median percentage CFB - 12 weeks results: 5.78%
  [LDL] Median percentage CFB - 24 weeks results: 5.78%
100 mg q.d., week 16
  [LDL] Mean percentage CFB - 24 weeks results: 12.10%
  [LDL] Median percentage CFB - 24 weeks results: 7.81%
100 mg q.d., week 20
  [LDL] Mean percentage CFB - 24 weeks results: 12.84%
  [LDL] Median percentage CFB - 24 weeks results: 7.74%
100 mg q.d., week 24
  [LDL] Mean percentage CFB - 24 weeks results: 14.01%
  [LDL] Median percentage CFB - 24 weeks results: 9.61%
200 mg q.d., week 1
  [LDL] Mean percentage CFB - 12 weeks results: 8.06%
  [LDL] Mean percentage CFB - 24 weeks results: 8.06%
  [LDL] Median percentage CFB - 12 weeks results: 6.59%
  [LDL] Median percentage CFB - 24 weeks results: 6.59%
200 mg q.d., week 2
  [LDL] Mean percentage CFB - 12 weeks results: 8.39%
  [LDL] Mean percentage CFB - 24 weeks results: 8.39%
  [LDL] Median percentage CFB - 12 weeks results: 5.81%
  [LDL] Median percentage CFB - 24 weeks results: 5.81%
200 mg q.d., week 4
  [LDL] Mean percentage CFB - 12 weeks results: 9.99%
  [LDL] Mean percentage CFB - 24 weeks results: 9.99%
  [LDL] Median percentage CFB - 12 weeks results: 10.14%
  [LDL] Median percentage CFB - 24 weeks results: 10.14%
200 mg q.d., week 8
  [LDL] Mean percentage CFB - 12 weeks results: 9.80%
  [LDL] Mean percentage CFB - 24 weeks results: 9.80%
  [LDL] Median percentage CFB - 12 weeks results: 8.13%
  [LDL] Median percentage CFB - 24 weeks results: 8.13%
200 mg q.d., week 12
  [LDL] Mean percentage CFB - 12 weeks results: 16.80%
  [LDL] Mean percentage CFB - 24 weeks results: 16.80%
  [LDL] Median percentage CFB - 12 weeks results: 11.50%
  [LDL] Median percentage CFB - 24 weeks results: 11.50%
200 mg q.d., week 16
  [LDL] Mean percentage CFB - 24 weeks results: 12.24%
  [LDL] Median percentage CFB - 24 weeks results: 9.19%
200 mg q.d., week 20
  [LDL] Mean percentage CFB - 24 weeks results: 14.33%
  [LDL] Median percentage CFB - 24 weeks results: 10.33%
200 mg q.d., week 24
  [LDL] Median percentage CFB - 24 weeks results: 13.81%
